Test results published in patent US20040121965A1, “Method of treating resistant tumors” (Wyeth Holdings Corporation, priority 2002, published 2004).
Read-outs that look alike come from different tables or passages of the source.

What was measured:
[1] = test system: KB-3-1; assay: Cell survival assay (SRB), KB-3-1; assay type: cell-based, human
Source text: Cells lines with previously known mechanisms of resistance. […] Res. 8: 207-218,1996); KB-3-1 (parental derived from an epidermoid carcinoma), KB-8.5, KB-V1 (Akiyama S-I, Fojo A, Hanover J A, Pastan I, Gottesman M M. Isolation and genetic characterization of human KB cell lines resistant to multiple drugs. Somatic Cell Mol. Gen., 11: 117-126,1985; Shen D-W, Cardarelli C, Hwang J, Cornwell M, Richert N, Ishii S, Pastan I, Gottesman MM. […] J. Biol. Chem., 261: 7762-7770, 1986); and HL-60 (parental derived from human leukemia) and HL60/AR (McGrath T., Center M. S. Adriamycin resistance in HL60 cells in the absence of detectable P-glycoprotein. Biochem. Res. Commun., 145:1171-1176,1987); A549 and A549.EpoB40 (He L., Yang C.-P.H., Horwitz S. B. Mutations in p-tubulin map to domains involved in regulation of microtubule stability in epothilone-resistant cell lines. Molecular Cancer Therapeutics. 1: 3-10, 2001). HCT-15 human colon carcinoma and DLD-1 human colon carcinoma are obtained from American Tissue Culture Collection. The MX-1W carcinoma is a Wyeth variant orginally obtained as MX-1 breast carcinoma from the National Cancer Institute. Cell lines selected for resistance to Representative Example 129. KB-3-1 cells are selected for resistance to Example 129 by chronically exposing cells to increasing concentrations of Example 129.
2.2. Cell Survival Assay: Standard Pharmacological Test Procedure. The concentration of candidate inhibitor required to inhibit 50% of cell growth (IC50) is done according to previously reported methods. […] Compounds are serially diluted into media as 2× stocks and 100 μl added to cells in duplicate. Compounds are incubated with cells for 3 days. At the end of the incubation period the sulforhodamine B (SRB) assay, which measures protein content as an assessment of cell survival, is performed as described previously (Skehan P, Storeng R, Scudiero D, Monks A, McMahon J, Vistica D, Warren J T, Bokesch H, Kenney S, Boyd MR. New calorimetric cytotoxicity assay for anticancer-drug screening. J Natl Cancer Inst 1990 Jul 4;82(13):1107-12) with some modification as follows. For KB-3-1 cells with 20% FCS, media is gently decanted and replaced with 200 μl of serum-free media mixed with cold 50% TCA for a final concentration of 10% TCA. The plates are incubated for 1 hr at 4° C., followed by washing 5 times in cold distilled water, then air dried overnight. The fixed cells are stained for 10 min with 80 μl of 0.04% SRB solution prepared in 1% glacial acetic acid. Stain is discarded and plates washed 5 times in 1% glacial acetic acid, then air-dried until completely dry. Stained cell product is dissolved in 150 μl of 10 mM Trizma Base and placed on a shaker for 20 minutes until fully dissolved. Absorbance is read on a Victor V multi-label plate reader (Perkin Elmer, Gaithersburg, Md.).

[2] = test system: KB-8-5 (MDR1+); assay: Cell survival assay (SRB), KB-8-5 (MDR1+); conditions: for IC50: Homo sapiens
[3] = test system: KB-V1 (MDR1++); assay: Cell survival assay (SRB), KB-V1 (MDR1++); conditions: for IC50: Homo sapiens
[4] = Homo sapiens, KB 3-1, KB-3-1 cells (paclitaxel-sensitive parent), read-out: In vitro IC50 (nM) KB-3-1
[5] = MDR1, read-out: In vitro IC50 (nM) KB85
[6] = read-out: In vitro IC50 (nM) KBV1

SMILES | IC50 [1, 4] [nM] | Ratio KB85/KB [2] | IC50 [2, 5] [nM] | Ratio KBV1/KB [3] | IC50 [3, 6] [nM] | IC50 ([1]; KB-3-1 parental, Table 8, read-out: KB-3-1 IC50) [nM] | resistance of KB-8-5 cells [2] [fold] | IC50 ([2]; MDR1, read-out: KB-8-5 (MDR1+) IC50, nM (N)) [nM] | IC50 ([3]; read-out: KB-V1 (MDR1++) IC50, nM (N)) [nM]
CCOC(=O)/C(C)=C/C(C(C)C)N(C)C(=O)[C@@H](NC(=O)[C@@H](NC)C(C)(C)c1ccccc1)[C@H](C)O (stereo in doubt) [Example 85, N,β,β-trimethyl-L-phenylalanyl-N^1-[(1R,2E)-4-ethoxy-1-isopropyl-3-methyl-4-oxo-2-butenyl]-N^1-methyl-L-allothreoninamide] | 115 | 11.5 | 1330 | 26.0 | ≥ 3000 |  |  |  | 
CNC(C(=O)N[C@H](C(=O)N(C)[C@H](/C=C(\C)C(=O)O)C(C)C)C(C)(C)C)C1(c2ccccc2)CC1 (stereo in doubt) [Example 142, (2E,4S)-2,5-dimethyl-4-(methyl{3-methyl-N-[(2S)-2-(methylamino)-2-(1-phenylcyclopropyl)acetyl]-L-valyl}amino)hex-2-enoic Acid] | 227 | 2.2 | 513 | 13.2 | > 3000 |  |  |  | 
CNC(C(=O)N[C@H](C(=O)N(C)[C@H](/C=C(\C)C(=O)O)C(C)C)C(C)(C)C)C1(c2ccccc2)CC1 (stereo in doubt) [Example 143, (2E,4S)-2,5-dimethyl-4-(methyl{3-methyl-N-[(2R)-2-(methylamino)-2-(1-phenylcyclopropyl)acetyl]-L-valyl}amino)hex-2-enoic Acid] | 27 | 2.1 | 57 | 61.6 | 1660 |  |  |  | 
COc1ccc(C[C@H]2NC(=O)/C=C/C[C@@H]([C@H](C)[C@H]3O[C@@H]3c3ccccc3)OC(=O)[C@H](CC(C)C)OC(=O)[C@H](C)CNC2=O)cc1Cl [Cryptophycin-1] |  |  |  |  |  | 0.0064 ± 0.0045 |  |  | 
CCOC(=O)/C(C)=C/[C@H](C(C)C)N(C)C(=O)[C@@H](NC(=O)[C@@H](NC)C(C)(C)c1cccc(Cl)c1)C(C)(C)C [Example 1a, 3-Chloro-N,β,β-trimethyl-L-phenylalanyl-N^1-[(1S,2E)4-ethoxy-1-isopropyl-3-methyl-4-oxo-2-butenyl]-N^1,3-dimethyl-L-valinamide] | 562 | 3.1 | 1740 | 5.3 | ≥ 3000 |  |  |  | 
CN[C@@H](C(=O)N[C@H](C(=O)N(C)[C@H](/C=C(\C)C(=O)O)C(C)C)C(C)(C)C)C(C)(C)c1cccc(Cl)c1 [Example 3, 3-Chloro-N,β,β-trimethyl-D-phenylalanyl-N^1-[(1S,2E)-3-carboxy-1-isopropyl-2-butenyl]-N^1,3-dimethyl-L-valinamide] | 15.1 | 1.3 | 20 | 76.0 | 1150 |  |  |  | 
CN[C@@H](C(=O)N[C@H](C(=O)N(C)[C@H](/C=C(\C)C(=O)O)C(C)C)C(C)(C)C)C(C)(C)c1ccc(Cl)cc1 [Example 6, 4-Chloro-N,β,β-trimethyl-D-phenylalanyl-N^1-[(1S,2E)-3-carboxy-1-isopropyl-2-butenyl]-N^1,3-dimethyl-L-valinamide] | 8.5 | 2.0 | 17.4 | 162.4 | 1380 |  |  |  | 
CCOC(=O)/C(C)=C/[C@H](C(C)C)N(C)C(=O)[C@@H](NC(=O)[C@@H](NC)C(C)(C)c1cccc(C)c1)C(C)(C)C [Example 7a, N,β,β,3-Tetramethyl-L-phenylalanyl-N^1-[(1S,2E)4-ethoxy-1-isopropyl-3-methyl-4-oxo-2-butenyl]-N^1,3-dimethyl-L-valinamide] | 21.9 | 24.0 | 525 | 110.0 | 2410 |  |  |  | 
CCOC(=O)/C(C)=C/[C@H](C(C)C)N(C)C(=O)[C@@H](NC(=O)[C@H](NC)C(C)(C)c1cccc(C)c1)C(C)(C)C [Example 7b, N,β,β,3-tetramethyl-D-phenylalanyl-N^1-[(1S,2E)-4-ethoxy-1-isopropyl-3-methyl4-oxo-2-butenyl]-N^1,3-dimethyl-L-valinamide] | 263 | 6.5 | 1700 | 11.4 | ≥ 3000 |  |  |  | 
CN[C@@H](C(=O)N[C@H](C(=O)N(C)[C@H](/C=C(\C)C(=O)O)C(C)C)C(C)(C)C)C(C)(C)c1cccc(C)c1 [Example 9, N,β,β,3-Tetramethyl-D-phenylalanyl-N^1-[(1S,2E)-3-carboxy-1-isopropyl-2-butenyl]-N^1,3-dimethyl-L-valinamide] | 7.9 | 2.5 | 19.9 | 56.5 | 447 |  |  |  | 
CCOC(=O)/C(C)=C/[C@H](C(C)C)N(C)C(=O)[C@@H](NC(=O)[C@@H](NC)C(C)(C)c1ccc(C)cc1)C(C)(C)C [Example 10a, N,β,β,4-Tetramethyl-L-phenylalanyl-N^1-[(1S,2E)-4-ethoxy-1-isopropyl-3-methyl4-oxo-2-butenyl]-N^1,3-dimethyl-L-valinamide] | 33.9 | 15.5 | 525 | 52.4 | 1780 |  |  |  | 
CCOC(=O)/C(C)=C/[C@H](C(C)C)N(C)C(=O)[C@@H](NC(=O)[C@H](NC)C(C)(C)c1ccc(C)cc1)C(C)(C)C [Example 10b, N,β,β,4-tetramethyl-D-phenylalanyl-N^1-[(1S,2E)-4-ethoxy-1-isopropyl-3-methyl-4-oxo-2-butenyl]-N^1,3-dimethyl-L-valinamide] | 447 | 3.9 | 1740 | 6.7 | ≥ 3000 |  |  |  | 
CN[C@H](C(=O)N[C@H](C(=O)N(C)[C@H](/C=C(\C)C(=O)O)C(C)C)C(C)(C)C)C(C)(C)c1ccc(C)cc1 [Example 11, N,β,β,4-Tetramethyl-L-phenylalanyl-N^1-[(1S,2E)-3-carboxy-1-isopropyl-2-butenyl]-N^1,3-dimethyl-L-valinamide] | 1.5 | 1.7 | 2.6 | 36.7 | 55 |  |  |  | 
CN[C@@H](C(=O)N[C@H](C(=O)N(C)[C@H](/C=C(\C)C(=O)O)C(C)C)C(C)(C)C)C(C)(C)c1ccc(C)cc1 [Example 12, N,β,β,4-Tetramethyl-D-phenylalanyl-N^1-[(1S,2E)-3-carboxy-1-isopropyl-2-butenyl]-N^1,3-dimethyl-L-valinamide] | 17 | 1.6 | 27.5 | 63.1 | 1070 |  |  |  | 
CCN[C@H](C(=O)N[C@H](C(=O)N(C)[C@H](/C=C(\C)C(=O)O)C(C)C)C(C)(C)C)C(C)(C)c1ccccc1 [Example 32, N-Ethyl-β,β-dimethylphenylalanyl-N^1-[(1S,2E)-3-carboxy-1-isopropyl-2-butenyl]-N^1,3-dimethyl-L-valinamide] |  | 2.6 |  | 64.5 |  |  |  |  | 
CN[C@H](C(=O)N[C@H](C(=O)N(C)[C@H](/C=C(\C)C(=O)NC(CCSC)C(=O)OC)C(C)C)C(C)(C)C)C(C)(C)c1ccccc1 (stereo partly drawn) [Example 144, 2-(4-{[3,3-Dimethyl-2-(3-methyl-2-methylamino-3-phenyl-butyrylamino)-butyryl]-methyl-amino}-2,5-dimethyl-hex-2-enoylamino)-4-methylsulfanyl-butyric Acid Methyl] |  | 14.9 | 55 |  |  |  |  |  | 
CCN[C@H](C(=O)N[C@H](C(=O)N(C)[C@H](/C=C(\C)C(=O)O)C(C)C)C(C)(C)C)C(C)(C)c1ccccc1 [Example 151, N-ethyl-β,β-dimethyl-L-phenylalanyl-N^1-[(1S,2E)-3-carboxy-1-isopropylbut-2-enyl]-N^1,3-dimethyl-L-valinamide] |  | 1.5 |  | 11.3 |  |  |  |  | 
COc1cc2c(c(OC)c1OC)-c1ccc(OC)c(=O)cc1[C@@H](NC(C)=O)CC2 [colchicine, reference compound] |  |  |  |  |  |  | 9.8 | 62.7 | 2440
